{
  "source": "patent US20230093099A1",
  "about": "“COMPOUNDS AND METHODS OF TREATING CANCERS” (CULLGEN (SHANGHAI), INC., priority 2019, published 2023)",
  "data": [
    {"test_system": "RS4;11 cells", "assay": "Cell viability assay (CellTiter-Glo) in RS4;11 cells", "type": "cell-based", "settings": "Homo sapiens, 72 h; RS4;11 cells; cell viability, 3 days, CellTiter-Glo; read-out: IC50", "experimental": "Specific exemplary heterobifunctional compounds were first characterized using cell viability assays. RS4;11 ALL cells were treated with bifunctional degraders for three days. The IC50 values ranged from 2 nM to over 10 uM.\nMV4;11, RS4;11, Kasumi-1, HEL and other cells were treated with NVP-BSK805, TG101209 or selected degraders for 3 days at indicated concentrations following a 3-fold serial dilution.\nHEL, RS4;11, MV4;11, Kasumi-1 and other cells were cultured at 37° C. with 5% CO2 in RPMI 1640 or DMEM Medium supplemented with 10% fetal bovine serum. Cells were authenticated using the short tandem repeat (STR) assays. Mycoplasma test results were negative.\nCells were seeded at a density of 5000 cells per well in 96-well assay plates and treated with test compounds following a 8-point or 12-point 3-fold serial dilution. Three days later, cell viability was determined using the CellTiter-Glo assay kit according to the manufacturer's instructions. The dose-response curves were determined and IC50 values were calculated using the GraphPad Prism software following a nonlinear regression (least squares fit) method.", "units": {"IC50": "µM"}, "values": [
      {"molecule": "Cc1cnc(Nc2ccc(N3CCN(C(=O)CCCCCCNc4cccc5c4C(=O)N(C4CCC(=O)NC4=O)C5=O)CC3)cc2)nc1Nc1cccc(S(=O)(=O)NC(C)(C)C)c1", "note": "(centres unmarked) [JA-015, N-(tert-Butyl)-3-((2-((4-(4-(7-((2-(2,6-dioxopiperidin-3-yl)-1,3-dioxoisoindolin-4-yl)amino)heptanoyl)piperazin-1-yl)phenyl)amino)-5-methylpyrimidin-4-yl)amino)benzenesulfonamide]", "IC50": "> 10"},
      {"molecule": "Cc1cnc(Nc2ccc(N3CCN(C(=O)CCCCCCCNc4cccc5c4C(=O)N(C4CCC(=O)NC4=O)C5=O)CC3)cc2)nc1Nc1cccc(S(=O)(=O)NC(C)(C)C)c1", "note": "(centres unmarked) [JA-016, N-(tert-Butyl)-3-((2-((4-(4-(8-((2-(2,6-dioxopiperidin-3-yl)-1,3-dioxoisoindolin-4-yl)amino)octanoyl)piperazin-1-yl)phenyl)amino)-5-methylpyrimidin-4-yl)amino)benzenesulfonamide]", "IC50": "> 10"},
      {"molecule": "Cc1cnc(Nc2ccc(N3CCN(C(=O)CCOCCNc4cccc5c4C(=O)N(C4CCC(=O)NC4=O)C5=O)CC3)cc2)nc1Nc1cccc(S(=O)(=O)NC(C)(C)C)c1", "note": "(centres unmarked) [JA-017, N-(tert-Butyl)-3-((2-((4-(4-(3-(2-((2-(2,6-dioxopiperidin-3-yl)-1,3-dioxoisoindolin-4-yl)amino)ethoxy)propanoyl)piperazin-1-yl)phenyl)amino)-5-methylpyrimidin-4-yl)amino)benzenesulfonamide]", "IC50": "> 10"},
      {"molecule": "Cc1cnc(Nc2ccc(N3CCN(C(=O)CCOCCOCCNc4cccc5c4C(=O)N(C4CCC(=O)NC4=O)C5=O)CC3)cc2)nc1Nc1cccc(S(=O)(=O)NC(C)(C)C)c1", "note": "(centres unmarked) [JA-018, N-(tert-Butyl)-3-((2-((4-(4-(3-(2-(2-((2-(2,6-dioxopiperidin-3-yl)-1,3-dioxoisoindolin-4-yl)amino)ethoxy)ethoxy)propanoyl)piperazin-1-yl)phenyl)amino)-5-methylpyrimidin-4-yl)amino)benzenesulfonamide]", "IC50": "> 10"},
      {"molecule": "Cc1cnc(Nc2ccc(N3CCN(C(=O)CCOCCOCCOCCNc4cccc5c4C(=O)N(C4CCC(=O)NC4=O)C5=O)CC3)cc2)nc1Nc1cccc(S(=O)(=O)NC(C)(C)C)c1", "note": "(centres unmarked) [JA-019, N-(tert-Butyl)-3-((2-((4-(4-(3-(2-(2-(2-((2-(2,6-dioxopiperidin-3-yl)-1,3-dioxoisoindolin-4-yl)amino)ethoxy)ethoxy)ethoxy)propanoyl)piperazin-1-yl)phenyl)amino)-5-methylpyrimidin-4-yl)amino)benzenesulfonamide]", "IC50": 0.357},
      {"molecule": "Cc1cnc(Nc2ccc(N3CCN(C(=O)CCOCCOCCOCCOCCNc4cccc5c4C(=O)N(C4CCC(=O)NC4=O)C5=O)CC3)cc2)nc1Nc1cccc(S(=O)(=O)NC(C)(C)C)c1", "note": "(centres unmarked) [JA-020, N-(tert-Butyl)-3-((2-((4-(4-(1-((2-(2,6-dioxopiperidin-3-yl)-1,3-dioxoisoindolin-4-yl)amino)-3,6,9,12-tetraoxapentadecan-15-oyl)piperazin-1-yl)phenyl)amino)-5-methylpyrimidin-4-yl)amino)benzenesulfonamide]", "IC50": 0.633},
      {"molecule": "Cc1cnc(Nc2ccc(N3CCN(C(=O)CCOCCOCCOCCOCCOCCNc4cccc5c4C(=O)N(C4CCC(=O)NC4=O)C5=O)CC3)cc2)nc1Nc1cccc(S(=O)(=O)NC(C)(C)C)c1", "note": "(centres unmarked) [JA-021]", "IC50": 0.94},
      {"molecule": "Cc1cnc(Nc2ccc(N3CCN(C(=O)CCC(=O)N[C@H](C(=O)N4C[C@H](O)C[C@H]4C(=O)NCc4ccc(-c5scnc5C)cc4)C(C)(C)C)CC3)cc2)nc1Nc1cccc(S(=O)(=O)NC(C)(C)C)c1", "note": "[JA-022, (2S,4R)-1-((S)-2-(4-(4-(4-((4-((3-(N-(tert-Butyl)sulfamoyl)phenyl)amino)-5-methylpyrimidin-2-yl)amino)phenyl)piperazin-1-yl)-4-oxobutanamido)-3,3-dimethylbutanoyl)-4-hydroxy-N-(4-(4-methylthiazol-5-yl)benzyl)pyrrolidine-2-carboxamide]", "IC50": "> 10"},
      {"molecule": "Cc1cnc(Nc2ccc(N3CCN(C(=O)CCCC(=O)N[C@H](C(=O)N4C[C@H](O)C[C@H]4C(=O)NCc4ccc(-c5scnc5C)cc4)C(C)(C)C)CC3)cc2)nc1Nc1cccc(S(=O)(=O)NC(C)(C)C)c1", "note": "[JA-023, (2S,4R)-1-((S)-2-(5-(4-(4-((4-((3-(N-(tert-Butyl)sulfamoyl)phenyl)amino)-5-methylpyrimidin-2-yl)amino)phenyl)piperazin-1-yl)-5-oxopentanamido)-3,3-dimethylbutanoyl)-4-hydroxy-N-(4-(4-methylthiazol-5-yl)benzyl)pyrrolidine-2-carboxamide]", "IC50": "> 10"},
      {"molecule": "Cc1cnc(Nc2ccc(N3CCN(C(=O)CCCCC(=O)N[C@H](C(=O)N4C[C@H](O)C[C@H]4C(=O)NCc4ccc(-c5scnc5C)cc4)C(C)(C)C)CC3)cc2)nc1Nc1cccc(S(=O)(=O)NC(C)(C)C)c1", "note": "[JA-024, (2S,4R)-1-((S)-2-(6-(4-(4-((4-((3-(N-(tert-Butyl)sulfamoyl)phenyl)amino)-5-methylpyrimidin-2-yl)amino)phenyl)piperazin-1-yl)-6-oxohexanamido)-3,3-dimethylbutanoyl)-4-hydroxy-N-(4-(4-methylthiazol-5-yl)benzyl)pyrrolidine-2-carboxamide]", "IC50": "> 10"},
      {"molecule": "Cc1cnc(Nc2ccc(N3CCN(C(=O)CCCCCC(=O)N[C@H](C(=O)N4C[C@H](O)C[C@H]4C(=O)NCc4ccc(-c5scnc5C)cc4)C(C)(C)C)CC3)cc2)nc1Nc1cccc(S(=O)(=O)NC(C)(C)C)c1", "note": "[JA-025, (2S,4R)-1-((S)-2-(7-(4-(4-((4-((3-(N-(tert-Butyl)sulfamoyl)phenyl)amino)-5-methylpyrimidin-2-yl)amino)phenyl)piperazin-1-yl)-7-oxoheptanamido)-3,3-dimethylbutanoyl)-4-hydroxy-N-(4-(4-methylthiazol-5-yl)benzyl)pyrrolidine-2-carboxamide]", "IC50": "> 10"},
      {"molecule": "Cc1cnc(Nc2ccc(N3CCN(C(=O)CCCCCCC(=O)N[C@H](C(=O)N4C[C@H](O)C[C@H]4C(=O)NCc4ccc(-c5scnc5C)cc4)C(C)(C)C)CC3)cc2)nc1Nc1cccc(S(=O)(=O)NC(C)(C)C)c1", "note": "[JA-026, (2S,4R)-1-((S)-2-(8-(4-(4-((4-((3-(N-(tert-Butyl)sulfamoyl)phenyl)amino)-5-methylpyrimidin-2-yl)amino)phenyl)piperazin-1-yl)-8-oxooctanamido)-3,3-dimethylbutanoyl)-4-hydroxy-N-(4-(4-methylthiazol-5-yl)benzyl)pyrrolidine-2-carboxamide]", "IC50": "> 10"},
      {"molecule": "Cc1cnc(Nc2ccc(N3CCN(C(=O)CCCCCCCC(=O)N[C@H](C(=O)N4C[C@H](O)C[C@H]4C(=O)NCc4ccc(-c5scnc5C)cc4)C(C)(C)C)CC3)cc2)nc1Nc1cccc(S(=O)(=O)NC(C)(C)C)c1", "note": "[JA-027, (2S,4R)-1-((S)-2-(9-(4-(4-((4-((3-(N-(tert-Butyl)sulfamoyl)phenyl)amino)-5-methylpyrimidin-2-yl)amino)phenyl)piperazin-1-yl)-9-oxononanamido)-3,3-dimethylbutanoyl)-4-hydroxy-N-(4-(4-methylthiazol-5-yl)benzyl)pyrrolidine-2-carboxamide]", "IC50": "> 10"},
      {"molecule": "Cc1cnc(Nc2ccc(N3CCN(C(=O)CCCCCCCCC(=O)N[C@H](C(=O)N4C[C@H](O)C[C@H]4C(=O)NCc4ccc(-c5scnc5C)cc4)C(C)(C)C)CC3)cc2)nc1Nc1cccc(S(=O)(=O)NC(C)(C)C)c1", "note": "[JA-028, (2S,4R)-1-((S)-2-(10-(4-(4-((4-((3-(N-(tert-Butyl)sulfamoyl)phenyl)amino)-5-methylpyrimidin-2-yl)amino)phenyl)piperazin-1-yl)-10-oxodecanamido)-3,3-dimethylbutanoyl)-4-hydroxy-N-(4-(4-methylthiazol-5-yl)benzyl)pyrrolidine-2-carboxamide]", "IC50": "> 10"},
      {"molecule": "Cc1cnc(Nc2ccc(N3CCN(C(=O)CCCCCCCCCC(=O)N[C@H](C(=O)N4C[C@H](O)C[C@H]4C(=O)NCc4ccc(-c5scnc5C)cc4)C(C)(C)C)CC3)cc2)nc1Nc1cccc(S(=O)(=O)NC(C)(C)C)c1", "note": "[JA-029, (2S,4R)-1-((S)-2-(11-(4-(4-((4-((3-(N-(tert-Butyl)sulfamoyl)phenyl)amino)-5-methylpyrimidin-2-yl)amino)phenyl)piperazin-1-yl)-11-oxoundecanamido)-3,3-dimethylbutanoyl)-4-hydroxy-N-(4-(4-methylthiazol-5-yl)benzyl)pyrrolidine-2-carboxamide]", "IC50": "> 10"},
      {"molecule": "Cc1cnc(Nc2ccc(N3CCN(C(=O)COCC(=O)N[C@H](C(=O)N4C[C@H](O)C[C@H]4C(=O)NCc4ccc(-c5scnc5C)cc4)C(C)(C)C)CC3)cc2)nc1Nc1cccc(S(=O)(=O)NC(C)(C)C)c1", "note": "[JA-030, (2S,4R)-1-((S)-2-(2-(2-(4-(4-((4-((3-(N-(tert-Butyl)sulfamoyl)phenyl)amino)-5-methylpyrimidin-2-yl)amino)phenyl)piperazin-1-yl)-2-oxoethoxy)acetamido)-3,3-dimethylbutanoyl)-4-hydroxy-N-(4-(4-methylthiazol-5-yl)benzyl)pyrrolidine-2-carboxamide]", "IC50": "> 10"},
      {"molecule": "Cc1cnc(Nc2ccc(N3CCN(C(=O)CCOCCC(=O)N[C@H](C(=O)N4C[C@H](O)C[C@H]4C(=O)NCc4ccc(-c5scnc5C)cc4)C(C)(C)C)CC3)cc2)nc1Nc1cccc(S(=O)(=O)NC(C)(C)C)c1", "note": "[JA-031, (2S,4R)-1-((S)-2-(3-(3-(4-(4-((4-((3-(N-(tert-Butyl)sulfamoyl)phenyl)amino)-5-methylpyrimidin-2-yl)amino)phenyl)piperazin-1-yl)-3-oxopropoxy)propanamido)-3,3-dimethylbutanoyl)-4-hydroxy-N-(4-(4-methylthiazol-5-yl)benzyl)pyrrolidine-2-carboxamide]", "IC50": "> 10"}
    ]}
  ]
}
